Results as given in patent US7993662B2, “Transparent solid oil cosmetics” (Kokyu Alcohol Kogyo Co., Ltd., priority 2005, dated 2011).

What was measured:
Type in all cases: physicochemical
[1] = Exudation (45° C. for 2 hours, then 25° C. for 3 hours, visual); design: key: A: When the amount of exudation was small and there were no oil droplets; B: when a slight degree of exudation was observed but the exudation went back in the temperature-controlled room at 25° C.; when the amount of exudation was large and the exudation did not go back even in the temperature-controlled room at 25° C
Protocol: After the sample stored in the 50 mL glass container as described in the above-mentioned sample preparation method was stored in a temperature-controlled room at 45° C. for 2 hours, the amount of exudation on the surface of the sample was visually evaluated. The extent to which the exudation went back when the sample was returned to the temperature-controlled room at 25° C. and stored for 3 hours was also evaluated.

[2] = Evaluation of hardness (EZ-Test-20N hardness meter, needle penetration); settings: 25° C.
Protocol: A sample such as a solid or an oil-based cosmetic was stored in a temperature-controlled room at 25° C. for at least 1 day, and measurement was carried out using an EZ-Test-20N hardness meter (manufactured by Shimadzu Corporation). The needle diameter was 1.0 mmφ, and the maximum value measured for the stress (N) at a needle penetration depth of 10 mm with a test speed of 10 mm/min was defined as the hardness.
Measurement was carried out using an EZ-Test-20N hardness meter (manufactured by Shimadzu Corporation). The needle diameter was 1.0 mmφ, and the maximum value measured for the stress (N) at a needle penetration depth of 10 mm with a test speed of 10 mm/min was defined as the hardness.

[3] = Miscibility evaluation (visual, 100° C. to 110° C.); settings: result in words
Protocol: Sample preparation method: Predetermined amounts (mass %) of all components were weighed, dissolved at a temperature of 100° C. to 110° C. as appropriate, stirred until uniform, then cooled to 80° C. to 90° C. while stirring, poured into a preheated 50 mL glass container, transferred to a temperature-controlled room at 45° C., stored for 1 hour while gradually cooling, further transferred to a temperature-controlled room at 25° C., and stored for at least 1 day, thus giving a sample. Evaluation Methods for Various Characteristics (1) Miscibility Evaluation Method
The miscibility at a temperature of 100° C. to 110° C. when preparing the sample was evaluated visually as a degree of difficulty. One that was easily miscible was evaluated as ‘A’, one that was slightly difficulty miscible was evaluated as ‘B’, and one that was difficulty miscible was evaluated as ‘C’.

[4] = UNICLEAR 100VG: 30% with 70% of the listed component
[5] = Versamid 930: 30% with 70% of the listed component
[6] = […] A200V: 30% with 70% of the listed component

CCCCCCCCCCCCCCCCOC(=O)C(CC)CCCC (stereo not shown) [CEH, Cetyl ethylhexanoate]
Exudation properties [1, 4]: A
Hardness [2, 4]: 0.70 N

CC(C)CCCCCCCCCCCCCCCOC(=O)CC(O)C(=O)OCCCCCCCCCCCCCCCC(C)C (stereo not shown) [DIS, Diisostearyl malate]
Exudation properties [1, 4]: A
Exudation properties [1, 5]: A
Hardness [2, 4]: 0.80 N
Hardness [2, 5]: 0.12 N

CCCCCCCCCCCCC(CO)CCCCCCCCCC (stereo not shown) [Example 24SP, Decyltetradecanol]
Exudation properties [1, 6]: C
Hardness [2, 6]: 0.05 N

CCCCCCCCCCCCCCC(CO)CCCCCCCCCCCC (stereo not shown) [Example 28SP, Dodecylhexadecanol]
Exudation properties [1, 6]: C
Hardness [2, 6]: 0.09 N

CC(C)CCCCCCCCCCCCCCC(=O)OC(C)C [IPIS, Isopropyl isostearate]
Exudation properties [1, 4]: A
Hardness [2, 4]: 0.60 N

CC(C)CCCCCCCCCCCCCCCOC(=O)CCCCCCCCCCCCCCC(C)C [ISIS, Isostearyl isostearate]
Exudation properties [1, 4]: B
Hardness [2, 4]: 0.05 N

CC(C)CCCCCCCCCCOC(=O)CCCCCC(C)C [KAK139, Isotridecyl isononanoate]
Exudation properties [1, 4]: A
Hardness [2, 4]: 0.50 N

CCCCC(CC)C(=O)OCC(C)(C)COC(=O)C(CC)CCCC (stereo not shown) [NDO, Neopentylglycol diethylhexanoate]
Exudation properties [1, 4]: A
Hardness [2, 4]: 0.90 N

CC(C)CCCCCCCCCCCCCCC(=O)OCC(COC(=O)CCCCCCCCCCCCCCC(C)C)(COC(=O)CCCCCCCCCCCCCCC(C)C)COC(=O)CCCCCCCCCCCCCCC(C)C [PTI, Pentaerythrityl tetraisostearate]
Exudation properties [1, 4]: B
Hardness [2, 4]: 0.01 N

CCCCC(CC)C(=O)OCC(COC(=O)C(CC)CCCC)(COC(=O)C(CC)CCCC)COC(=O)C(CC)CCCC (stereo not shown) [PTO, Pentaerythrityl tetraethylhexanoate]
Exudation properties [1, 4]: B
Hardness [2, 4]: 0.04 N

Nc1cc(S(=O)(=O)[O-])cc2cc(S(=O)(=O)[O-])c(N=Nc3ccccc3)c(O)c12.[Na+].[Na+] [Red. No. 227]
miscibility with the base [3]: particularly excellent

CC(C)CCCC(C)CCCC(C)CCCCC(C)CCCC(C)CCCC(C)C (stereo not shown) [SQ, Squalane]
Exudation properties [1, 4]: A
Hardness [2, 4]: 0.02 N

CC(C)CCCCCCCCCCCCCCC(=O)OCC(COC(=O)CCCCCCCCCCCCCCC(C)C)OC(=O)CCCCCCCCCCCCCCC(C)C [TISG, Triisostearin]
Exudation properties [1, 4]: B
Hardness [2, 4]: 0.03 N

CCCCC(CC)C(=O)OCC(COC(=O)C(CC)CCCC)OC(=O)C(CC)CCCC (stereo not shown) [TOG, Triethylhexanoin]
Exudation properties [1, 4]: B
Hardness [2, 4]: 0.06 N

CCC(COC(=O)CCCCCCCCCCCCCCC(C)C)(COC(=O)CCCCCCCCCCCCCCC(C)C)COC(=O)CCCCCCCCCCCCCCC(C)C [TTI, Trimethylolpropane triisostearate]
Exudation properties [1, 4]: B
Exudation properties [1, 6]: B
Hardness [2, 4]: 0.01 N
Hardness [2, 6]: 0.02 N

Polyglyceryl-2 diisostearate [PGIS22]
Exudation properties [1, 4]: A
Exudation properties [1, 5]: A
Hardness [2, 4]: 0.33 N
Hardness [2, 5]: 3.00 N

Polyglyceryl-2 isostearate [PGIS21]
Exudation properties [1, 4]: A
Hardness [2, 4]: 0.35 N

Polyglyceryl-2 triisostearate [PGIS23]
Exudation properties [1, 4]: A
Hardness [2, 4]: 0.50 N

Trimethylolpropane triethylhexanoate [TTO]
Exudation properties [1, 6]: B
Hardness [2, 6]: 0.03 N
